Patent US10731159B2, “Cationic lipid” (DAIICHI SANKYO COMPANY, LIMITED, priority 2013, dated 2020)

Columns and labels:
[1] = Average particle size of nucleic acid lipid particle (NICOMP 380ZLS); assay type: physicochemical; details: ± deviation
Experimental: The particle size of the liposome was measured using Zeta Potential/Particle Sizer NICOMP™ 380ZLS (Particle Sizing Systems, LLC). In the tables, the average particle size is indicated by a volume-average particle size, and the numeric value following ±represents a deviation.

[2] = Rate of encapsulation of polynucleotide/mRNA (Quant-iT RiboGreen, with and without Triton X-100); assay type: physicochemical
Experimental: The rate of encapsulation of the double-stranded polynucleotide was measured using Quant-iT RiboGreen RNA Assay kit (Invitrogen Corp.) according to the attached document.
(§1) Specifically, the double-stranded polynucleotide in the nucleic acid lipid particle dispersion was quantified in the presence and absence of a 0.015% Triton X-100 detergent, and the rate of encapsulation was calculated according to the following expression: {[Amount of the double-stranded polynucleotide in the presence of the detergent]−[Amount of the double-stranded polynucleotide in the absence of the detergent]}/[Amount of the double-stranded polynucleotide in the presence of the detergent]}×100(%) (3) Ratio of Double-Stranded Polynucleotide to Lipid
The rate of encapsulation of the mRNA was measured using Quant-iT RiboGreen RNA Assay kit (Invitrogen Corp.) according to the attached document.
as §1, with “mRNA” for “double-stranded polynucleotide”, “mRNA” for “Double-Stranded Polynucleotide”

[3] = Ratio of polynucleotide/mRNA to lipid (wt/wt); assay type: physicochemical
Experimental: The nucleic acid lipid particle dispersion was mixed with acetonitrile and chloroform at a ratio of 1:1:1 and centrifuged at 15,000 rpm for 2 minutes. Then, the aqueous layer obtained as an upper layer was recovered, followed by the extraction of the double-stranded polynucleotide. The amount of the double-stranded polynucleotide in the sample was measured by ion-exchange chromatography (system: Agilent 1100 series, column: TSKgel DEAE-2SW (2.6×150 mm) (Tosoh Corp), buffer A: 20% acetonitrile, buffer B: 20% acetonitrile and 1.6 M ammonium formate, gradient (B %): 30-55% (0-20 min), flow rate: 1 mL/min, temperature: 40° C., detection: 260 nm).
The amount of the phospholipid in the nucleic acid lipid particle dispersion was measured using Phospholipid C-Test Wako (Wako Pure Chemical Industries Ltd.) according to the attached document. Specifically, the phospholipid in the sample was quantified in the presence of a 1% Triton X-100 detergent.
(§2) The amounts of cholesterol and LP in the nucleic acid lipid particle dispersion were measured by reverse-phase chromatography (system: Agilent 1100 series, column: Chromolith Performance RP-18 endcapped 100-3 monolithic HPLC-column (Merck), buffer A: 0.01% trifluoroacetic acid, buffer B: 0.01% trifluoroacetic acid and methanol, gradient (B %): 87-92% (0-10 min), flow rate: 2 mL/min, temperature: 50° C., detection: 205 nm).
(§3) The total amount of lipids was calculated from the amount of the phospholipid and the compositional ratio of lipid components constituting the liposome, and the ratio of the polynucleotide to the lipid was calculated from the aforementioned amount of the polynucleotide and the total amount of lipids according to the following expression: [Double-stranded polynucleotide concentration]/[Total lipid concentration] (wt/wt)
as §3, with “phospholipid, the amount of cholesterol, and the amount of LP,” for “phospholipid”
The amount of the double-stranded polynucleotide in a sample from the nucleic acid lipid particle dispersion was measured in the presence of a 5% Triton X-100 detergent by ion-exchange chromatography (system: Agilent 1100 series, column: DNAPac PA200 (4×250 mm) (Thermo Fisher Scientific K.K.), buffer A: 10 mM Tris, 25 mM sodium perchlorate, and 20% ethanol, pH 7.0, buffer B: 10 mM Tris, 250 mM sodium perchlorate, and 20% ethanol, pH 7.0, gradient (B %): 20-70% (0-15 min), flow rate: 0.5 mL/min, temperature: 40° C., detection: 260 nm).
as §2, with “82-92%” for “87-92%”
The total amount of lipids was calculated from the amount of the phospholipid, the amount of cholesterol, and the amount of LP, and the compositional ratio of lipid components constituting the liposome, and the ratio of the mRNA to the lipid was calculated from the “amount of the mRNA in the presence of the detergent” of the preceding paragraph (2) according to the following expression: [mRNA concentration in the presence of the detergent]/[Total lipid concentration] (wt/wt)

human PLK-1 gene = test: Test Example 10: PLK-1 expression inhibition in Hep3B tumor of nude mice; assay type: in vivo; details: nude mice with subcutaneous Hep3B tumor, i.v. 1 mg/kg and 3 mg/kg, tumor collected the day after administration; particles of Example 57
Experimental: After acclimatization and raising of each nude mouse (CAnN.Cg-Foxn1[nu]/CrlCrlj[Foxn1nu/Foxn1nu]) for 8 days, cultured human Hep3B cells (1×10^7 cells/mouse) were subcutaneously transplanted to the right lateral region of the mouse. 19 days after the tumor transplantation, the mice were grouped with the tumor volume as an index, and, on the next day, the nucleic acid lipid particle-containing dispersion prepared in Example 57 was intravenously administered (administered at doses of 1 mg/kg and 3 mg/kg) to the tail of each mouse. PBS was administered to a control group. On the day after the administration of the nucleic acid lipid particle, a tumor mass was collected from the cancer-bearing mouse, and a nucleic acid was extracted using QIAzol Lysis Reagent (manufactured by Qiagen N.V.) and chloroform. Then, total RNA was purified using QIAGNE RNeasy Plus Mini kit (manufactured by Qiagen N.V.) according to the attached protocol.
16 μL of the purified RNA and 4 μL of SuperScript VILO Master mix (Life Technologies, Inc.) were mixed and used in RT reaction under conditions given below.
RT reaction: 25° C. for 10 min • 42° C. for 60 min • 85° C. for 5 min. […]
The quantitative analysis was conducted by the ΔΔCt method. A value (ΔΔCt) was determined by subtracting ΔCt of the PBS administration group from the difference in Ct value (ΔCt) between human PLK-1 and human GAPDH in the administration group of each nucleic acid lipid particle, and a relative value (RQ) to the PBS administration group, RQmax, and RQmin were calculated according to the following expressions: RQ=2^−ΔΔCt RQmax=2^−95% CI of ΔΔCt (95% CI of ΔΔCt: the maximum value of 95% confidence interval of ΔΔCt) RQmin=2^−95% CI of ΔΔCt (95% CI of ΔΔCt: the minimum value of 95% confidence interval of ΔΔCt)
In the diagram, error bars were calculated according to the following expression: +error bars:RQmax−RQ,−error bars:RQ−RQmin)

Factor VII protein = test: Test Example 9: Factor VII (FVII) protein measurement in mouse plasma, 0.1 mg/kg i.v.; assay type: in vivo; details: mice, i.v. 0.1 mg/kg; for FVII inhibitory activity (in words): 1 day and 6 days after administration; for Relative amount of FVII, 1 day later: plasma 1 day after administration; for Relative amount of FVII, 1 day later / Relative amount of FVII, 6 days later: PBS = 100%; for Relative amount of FVII, 6 days later: plasma 6 days after administration
Experimental: The Factor VII protein was measured according to a method described in Nature Biotechnology (2010) 28, 172-176. C57BL6/J mice (male, 9 weeks old) were randomly grouped (n=4). The nucleic acid lipid particle dispersion prepared in Example 33 was intravenously injected at a dose of 0.3 mg/kg to the tail of each mouse. One day after the administration, approximately 50 μL of blood was collected from the tail vein, and plasma was obtained. The amount of the Factor VII protein in the obtained plasma was measured using Biophen FVII assay kit (manufactured by Aniara Corp.) according to the attached protocol.
When the amount of FVII of respective plasma samples collected in equal amounts from individuals in a PBS administration group was defined as 100%, the relative ratio (%) of the amount of FVII in a plasma sample of each individual was used as a measurement value (A). An average value (B) was determined from the respective measurement values of the individuals in the PBS administration group. The relative ratio of the measurement value (A) of each individual was determined from the expression: A/B×100(%).
By the same procedures as in Test Example 7, the strength of Factor VII protein expression inhibitory activity was compared among nucleic acid lipid particles each prepared using a novel lipid. The prepared nucleic acid lipid particle dispersion was intravenously injected at a dose of 0.1 mg/kg to the tail of each mouse. One day and 6 days after the administration, approximately 50 μL of blood was collected from the tail vein, and plasma was obtained.

[4] = Example 57: PLK1424-2/A siRNA, DPPC:Chol:LP:PEG-C-DSA=7:33.5:57:2.5, N/P 3
[5] = Example 56: siFVII, DSPC:Chol:LP:PEG-C-DMA=10:48:40:2, N/P 3

CCCCCCCCCCCCCCCCCC(CCCCCCCCCC)OC(=O)OCCCN(C)C (stereo not drawn) [Example 19, 3-(Dimethylamino)propyloctacosan-11-yl Carbonate]
Average particle size [1, 4]: 103 ± 16 nm | Rate of polynucleotide encapsulation [2, 4]: 97% | Ratio of polynucleotide to lipid siRNA/lipid [3, 4]: 0.095 wt/wt | PLK-1 expression inhibitory activity in tumor (in words, FIG. 5) (human PLK-1 gene): strong PLK-1 expression inhibitory activity

CCCCCC[C@H](C/C=C\CCCCCCCC(CCCCCCC/C=C\C[C@@H](CCCCCC)OC(C)=O)OC(=O)OCCCN(C)C)OC(C)=O [Example 23, (7R,9Z,26Z,29R)-18-({[3-(Dimethylamino)propoxy]carbonyl}oxy)pentatriaconta-9,26-diene-7,29-diyl Diacetate]
Average particle size [1, 5]: 219 ± 49 nm | FVII inhibitory activity (in words) (Factor VII protein): strong FVII inhibitory activity | Relative amount of FVII, 1 day later (Factor VII protein): 21% | Relative amount of FVII, 6 days later (Factor VII protein): 32% | Rate of polynucleotide encapsulation [2, 5]: 99% | Ratio of polynucleotide to lipid siRNA/lipid [3, 5]: 0.076 wt/wt

CCCCCCCCCCC(CCCCCCC/C=C\C[C@@H](CCCCCC)OC(C)=O)OC(=O)OCCCN(C)C (stereo partly drawn) [Example 28, (7R,9Z)-18-({[3-(Dimethylamino)propyloxy]carbonyl}oxy)octacos-9-en-7-yl Acetate]
Average particle size [1, 5]: 177 ± 36 nm | FVII inhibitory activity (in words) (Factor VII protein): strong FVII inhibitory activity | Relative amount of FVII, 1 day later (Factor VII protein): 45% | Relative amount of FVII, 6 days later (Factor VII protein): 57% | Rate of polynucleotide encapsulation [2, 5]: 97% | Ratio of polynucleotide to lipid siRNA/lipid [3, 5]: 0.083 wt/wt

CCCCCCCCCCCCCCCCCCCC(CCCCCCCCCC)OC(=O)OCCCN(C)C (stereo not drawn) [Example 45, 3-(Dimethylamino)propyl triacontan-11-yl Carbonate]
Average particle size [1, 4]: 100 ± 27 nm | Rate of polynucleotide encapsulation [2, 4]: 96% | Ratio of polynucleotide to lipid siRNA/lipid [3, 4]: 0.093 wt/wt | PLK-1 expression inhibitory activity in tumor (in words, FIG. 5) (human PLK-1 gene): strong PLK-1 expression inhibitory activity

CCCCC/C=C\C/C=C\CCCCCCCCC(COCCCCCCCC/C=C\C[C@@H](CCCCCC)OC(C)=O)OC(=O)OCCCN(C)C (stereo partly drawn) [Example 54, (20,23R)-2-Methyl-9-[(9Z,12Z)-octadeca-9,12-dien-1-yl]-7-oxo-6,8,11-trioxa-2-azanonacos-20-en-23-yl Acetate]
Average particle size [1, 4]: 127 ± 29 nm | Rate of polynucleotide encapsulation [2, 4]: 98% | Ratio of polynucleotide to lipid siRNA/lipid [3, 4]: 0.078 wt/wt | PLK-1 expression inhibitory activity in tumor (in words, FIG. 5) (human PLK-1 gene): strong PLK-1 expression inhibitory activity
